The subject of one test is breast line MDA468. Nature of the test: In vitro cell culture growth assay (MTS), MDA468. The class given is cell-based. To be noted: Homo sapiens, 72 h, MDA468 cells, three days after drug treatment. Put shortly:
(§1)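 Cells were plated and, one day later, treated with inhibitors. Three days after treatment, viable cell density was measured by MTS dye conversion, read as absorbance at 490 nm. Effects are expressed as percent of control growth versus vehicle-treated cells on the same plate.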

A further test has as its target T1, Human mTOR (FLAG-TOR) (Homo sapiens, UniProt P42345).
T1 construct: FLAG
Nature of the test: Human mTOR kinase assay with purified enzyme, DELFIA format. Type of test: biochemical. To be noted: purified human mTOR enzyme, DELFIA format. Put shortly:
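Purified FLAG-mTOR in HEPES pH 7.4 buffer with 10 mM MnCl2 was preincubated with inhibitor and reacted 2 h at room temperature with His6-S6K substrate, then stopped with EDTA/EGTA. Phospho-T389 S6K detected by DELFIA with Eu-labelled antibody (40 ng/mL) after plate capture; inhibition computed from signal.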

The subject of another test is prostate line LNCap. Description: In vitro cell culture growth assay (MTS), LNCap. Type of test: cell-based. To be noted: Homo sapiens, LNCaP, 72 h, LNCap cells, three days after drug treatment. Summed up: as §1
For test [1], the target named is T2, PI3K (Homo sapiens, UniProt P42336).
T2 construct: PI3 Kinase α IC50; other: PI3 Kinase α; other: PI3 Kinase α isoform, fluorescence polarization
T2 sequence (P42336 whole entry, canonical isoform): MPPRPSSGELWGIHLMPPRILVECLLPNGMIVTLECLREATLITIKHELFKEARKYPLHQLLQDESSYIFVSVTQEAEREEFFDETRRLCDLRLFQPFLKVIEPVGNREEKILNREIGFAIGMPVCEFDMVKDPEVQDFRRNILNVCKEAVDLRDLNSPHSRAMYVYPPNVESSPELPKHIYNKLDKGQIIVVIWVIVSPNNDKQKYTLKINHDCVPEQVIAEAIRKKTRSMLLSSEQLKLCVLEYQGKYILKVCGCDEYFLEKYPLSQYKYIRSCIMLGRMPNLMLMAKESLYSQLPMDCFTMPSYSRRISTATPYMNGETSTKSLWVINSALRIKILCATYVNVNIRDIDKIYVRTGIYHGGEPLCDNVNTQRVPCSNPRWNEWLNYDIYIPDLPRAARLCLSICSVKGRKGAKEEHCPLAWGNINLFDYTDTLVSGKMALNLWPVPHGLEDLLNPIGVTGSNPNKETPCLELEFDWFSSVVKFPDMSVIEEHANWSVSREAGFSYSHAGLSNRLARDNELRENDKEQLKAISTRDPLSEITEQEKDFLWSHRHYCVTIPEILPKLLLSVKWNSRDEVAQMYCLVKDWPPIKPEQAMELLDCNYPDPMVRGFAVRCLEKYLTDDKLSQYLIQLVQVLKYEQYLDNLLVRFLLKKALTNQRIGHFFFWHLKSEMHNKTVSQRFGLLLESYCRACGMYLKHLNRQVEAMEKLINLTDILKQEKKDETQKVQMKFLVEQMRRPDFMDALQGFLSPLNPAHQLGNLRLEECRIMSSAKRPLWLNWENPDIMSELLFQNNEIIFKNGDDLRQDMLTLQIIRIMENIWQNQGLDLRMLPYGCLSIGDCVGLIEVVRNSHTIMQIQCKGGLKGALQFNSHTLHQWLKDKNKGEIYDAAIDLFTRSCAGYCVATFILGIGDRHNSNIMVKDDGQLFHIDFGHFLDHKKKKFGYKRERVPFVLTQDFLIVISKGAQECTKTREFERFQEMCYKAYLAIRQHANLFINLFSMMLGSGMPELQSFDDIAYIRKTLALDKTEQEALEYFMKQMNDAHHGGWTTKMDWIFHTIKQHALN
Description: Fluorescence polarization assay for PI3K. The following applies: PI3 Kinase α isoform, fluorescence polarization; read-out: PI3 Kinase α IC50. Type of test: biochemical. Summed up: (§2)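 PI3K was preincubated with compound (final DMSO 1%), and the reaction was started with PIP2/ATP substrate and run 30–60 min. It was stopped with a detector mix giving 10 nM red probe and 70 nM GST-GRP.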
(Polarisation of emitted light reports the rotation of a fluorescent probe.)

Test [2] concerns the target T3, PI3K (Homo sapiens, UniProt P48736).
T3 construct: PI3 Kinase γ IC50; other: PI3 Kinase γ; other: PI3 Kinase γ isoform, fluorescence polarization
Description: Fluorescence polarization assay for PI3K. Type of test: biochemical. The following applies: PI3 Kinase γ isoform, fluorescence polarization; read-out: PI3 Kinase γ IC50. Summed up: as §2

Our source for the IC50 values is patent US8129371B2, “Thienopyrimidine and pyrazolopyrimidine compounds and their use as mTOR kinase and PI3 kinase inhibitors” (Wyeth LLC, priority 2007, dated 2012).

T3 sequence (P48736 whole entry, canonical isoform): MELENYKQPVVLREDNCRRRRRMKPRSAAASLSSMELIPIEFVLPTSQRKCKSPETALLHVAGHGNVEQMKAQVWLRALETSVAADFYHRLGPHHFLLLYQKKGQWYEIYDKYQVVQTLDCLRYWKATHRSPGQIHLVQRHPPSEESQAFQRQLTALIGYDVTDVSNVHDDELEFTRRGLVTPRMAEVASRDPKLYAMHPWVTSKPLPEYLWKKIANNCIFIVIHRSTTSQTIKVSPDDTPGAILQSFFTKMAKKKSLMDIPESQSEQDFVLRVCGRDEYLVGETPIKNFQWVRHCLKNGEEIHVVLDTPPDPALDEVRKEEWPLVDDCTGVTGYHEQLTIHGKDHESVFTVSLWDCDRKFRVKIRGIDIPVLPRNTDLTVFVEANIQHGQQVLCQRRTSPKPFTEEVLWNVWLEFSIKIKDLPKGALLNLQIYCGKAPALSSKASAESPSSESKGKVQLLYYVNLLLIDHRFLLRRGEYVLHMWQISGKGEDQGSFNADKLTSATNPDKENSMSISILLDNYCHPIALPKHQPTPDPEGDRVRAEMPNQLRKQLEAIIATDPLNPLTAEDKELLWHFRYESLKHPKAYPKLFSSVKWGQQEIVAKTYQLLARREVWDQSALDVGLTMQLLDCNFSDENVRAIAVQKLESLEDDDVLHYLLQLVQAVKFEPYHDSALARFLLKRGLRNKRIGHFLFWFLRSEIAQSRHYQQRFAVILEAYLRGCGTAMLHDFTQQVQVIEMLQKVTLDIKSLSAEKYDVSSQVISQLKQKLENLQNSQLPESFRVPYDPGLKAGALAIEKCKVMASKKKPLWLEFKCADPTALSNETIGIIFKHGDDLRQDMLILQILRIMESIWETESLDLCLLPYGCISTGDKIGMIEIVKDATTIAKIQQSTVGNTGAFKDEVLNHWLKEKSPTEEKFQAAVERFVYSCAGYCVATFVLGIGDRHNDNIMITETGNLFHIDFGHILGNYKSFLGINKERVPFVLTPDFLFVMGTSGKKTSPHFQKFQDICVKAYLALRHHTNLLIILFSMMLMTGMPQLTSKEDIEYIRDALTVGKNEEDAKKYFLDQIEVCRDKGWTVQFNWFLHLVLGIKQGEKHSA

Take `CNC(=O)Nc1ccc(-c2nc(N3CC4CCC(C3)O4)c3cnn(C4COCOC4)c3n2)cc1` [Example 385, 1-{4-[1-(1,3-dioxan-5-yl)-4-(8-oxa-3-azabicyclo[3.2.1]oct-3-yl)-1H-pyrazolo[3,4-d]pyrimidin-6-yl]phenyl}-3-methylurea]: the IC50 (as a rule, the concentration needed to halve the response being measured) in the test on breast line MDA468 was 4.7 µM; against Human mTOR (FLAG-TOR), 0.00995 µM; in the test on prostate line LNCap, 1 µM; on PI3K [1], 4.03 µM; on PI3K [2], more than 10 µM.
On the same counts, the results for `c1cc2cc(-c3nc(N4CC5CCC(C4)O5)c4cnn(C5CCC6(CC5)OCCO6)c4n3)ccc2[nH]1` [Example 388, 1-(1,4-dioxaspiro[4.5]dec-8-yl)-6-(1H-indol-5-yl)-4-(8-oxa-3-azabicyclo[3.2.1]oct-3-yl)-1H-pyrazolo[3,4-d]pyrimidine] are 2 µM, 0.0125 µM, 0.33 µM, 10.5 µM and more than 10 µM.
Turning to `Cn1ncc2c(N3CC4COC(C3)O4)nc(-c3ccc(NC(=O)Nc4cccnc4)cc3)nc21` (centres unmarked) [Example 391, 1-{4-[4-(6,8-dioxa-3-azabicyclo[3.2.1]oct-3-yl)-1-methyl-1H-pyrazolo[3,4-d]pyrimidin-6-yl]phenyl}-3-pyridin-3-ylurea], the IC50 with breast line MDA468 was 0.58 µM; on Human mTOR (FLAG-TOR), 0.0042 µM; in the test with prostate line LNCap, 0.185 µM; on PI3K [1], 0.101 µM; on PI3K [2], 0.919 µM.
Turning to `CNC(=O)Nc1ccc(-c2nc(N3CC4COC(C3)O4)c3cnn(C)c3n2)cc1` (centres unmarked) [Example 392, 1-{4-[4-(6,8-dioxa-3-azabicyclo[3.2.1]oct-3-yl)-1-methyl-1H-pyrazolo[3,4-d]pyrimidin-6-yl]phenyl}-3-methylurea], the IC50 with breast line MDA468 was 4.8 µM; against Human mTOR (FLAG-TOR), 0.0395 µM; in the test with prostate line LNCap, 1.2 µM; at PI3K [1], 0.582 µM; on PI3K [2], 11 µM.
On to `O=C(Nc1ccc(-c2nc(N3C[C@@H]4C[C@H]3CO4)c3cnn(CC(F)(F)F)c3n2)cc1)Nc1ccc(N2CCNCC2)cc1` [Example 393, 1-(4-{4-[(1S,4S)-2-oxa-5-azabicyclo[2.2.1]hept-5-yl]-1-(2,2,2-trifluoroethyl)-1H-pyrazolo[3,4-d]pyrimidin-6-yl}phenyl)-3-(4-piperazin-1-ylphenyl)urea], for which the IC50 in the test with breast line MDA468 stood at 0.014 µM; on Human mTOR (FLAG-TOR), 0.00175 µM; with prostate line LNCap it was 0.001 µM; at PI3K [1] it was 0.33 µM; on PI3K [2], 3.09 µM.
As to `c1cncc(CN2CCC(n3ncc4c(N5CC6CCC(C5)O6)nc(-c5ccc6[nH]ccc6c5)nc43)CC2)c1` [Example 394, 6-(1H-indol-5-yl)-4-(8-oxa-3-azabicyclo[3.2.1]oct-3-yl)-1-[1-(pyridin-3-ylmethyl)piperidin-4-yl]-1H-pyrazolo[3,4-d]pyrimidine], the IC50 in the test with breast line MDA468 was 2 µM; against Human mTOR (FLAG-TOR) it was 0.0145 µM; in the test with prostate line LNCap it was 0.32 µM; at PI3K [1], 2.92 µM; at PI3K [2], 9.5 µM.
On the same counts, the results for `O=C(Nc1ccc(-c2nc(N3CC4CCC(C3)O4)c3cnn(CC(F)(F)F)c3n2)cc1)NC1CC1` [Example 395, 1-cyclopropyl-3-{4-[4-(8-oxa-3-azabicyclo[3.2.1]oct-3-yl)-1-(2,2,2-trifluoroethyl)-1H-pyrazolo[3,4-d]pyrimidin-6-yl]phenyl}urea] are 0.06 µM, 0.00048 µM, 0.004 µM, 1.46 µM and 8 µM.
`CCn1nc(Br)c2c(N3CC4CCC(C3)O4)nc(-c3ccc(NC(=O)NC)cc3)nc21` [Example 397, 1-{4-[3-bromo-1-ethyl-4-(8-oxa-3-azabicyclo[3.2.1]oct-3-yl)-1H-pyrazolo[3,4-d]pyrimidin-6-yl]phenyl}-3-methylurea]: the IC50 was 1.5 µM in the test with breast line MDA468; 0.0031 µM against Human mTOR (FLAG-TOR); 0.21 µM with prostate line LNCap; 0.317 µM on PI3K [1]; 5.63 µM on PI3K [2].
On the same counts, the results for `CN1CCN(c2ccc(NC(=O)Nc3ccc(-c4nc(N5CC6CCC(C5)O6)c5cnn(C6CCC(=O)CC6)c5n4)cc3)cc2)CC1` [Example 400, 1-[4-(4-methylpiperazin-1-yl)phenyl]-3-{4-[4-(8-oxa-3-azabicyclo[3.2.1]oct-3-yl)-1-(4-oxocyclohexyl)-1H-pyrazolo[3,4-d]pyrimidin-6-yl]phenyl}urea] are less than 0.001 µM, 0.000335 µM, less than 0.001 µM, 0.165 µM and 1.99 µM.
On the same counts, the results for `O=C1CCC(n2ncc3c(N4CC5CCC(C4)O5)nc(-c4ccc(NC(=O)NC5CC5)cc4)nc32)CC1` [Example 401, 1-cyclopropyl-3-{4-[4-(8-oxa-3-azabicyclo[3.2.1]oct-3-yl)-1-(4-oxocyclohexyl)-1H-pyrazolo[3,4-d]pyrimidin-6-yl]phenyl}urea] are 0.01 µM, 0.000445 µM, 0.001 µM, 2.11 µM and more than 10 µM.
Take `CNC(=O)Nc1ccc(-c2nc(N3CC4CCC(C3)O4)c3sccc3n2)cc1` [Example 406, 1-methyl-3-{4-[4-(8-oxa-3-azabicyclo[3.2.1]oct-3-yl)thieno[3,2-d]pyrimidin-2-yl]phenyl}urea]: the 50% inhibitory concentration (IC50) was 0.4 µM in the test on breast line MDA468; 0.00094 µM on Human mTOR (FLAG-TOR); 0.085 µM in the test with prostate line LNCap; 0.423 µM on PI3K [1]; more than 10 µM on PI3K [2].
As for `O=C(NCCF)Nc1ccc(-c2nc(N3CC4CCC(C3)O4)c3sccc3n2)cc1` [Example 408, 1-(2-fluoroethyl)-3-{4-[4-(8-oxa-3-azabicyclo[3.2.1]oct-3-yl)thieno[3,2-d]pyrimidin-2-yl]phenyl}urea], the IC50 in the test on breast line MDA468 was 0.53 µM; against Human mTOR (FLAG-TOR), 0.00061 µM; in the test on prostate line LNCap it was 0.087 µM; at PI3K [1], 0.825 µM; on PI3K [2] it was more than 10 µM.
On the same counts, the results for `O=C(Nc1ccc(-c2nc(N3CC4CCC(C3)O4)c3sccc3n2)cc1)NC1CC1` [Example 410, 1-cyclopropyl-3-{4-[4-(8-oxa-3-azabicyclo[3.2.1]oct-3-yl)thieno[3,2-d]pyrimidin-2-yl]phenyl}urea] are 0.78 µM, 0.00071 µM, 0.04 µM, 1.36 µM and not below 10 µM.
Consider `O=C(Nc1ccc(-c2nc(N3CC4CCC(C3)O4)c3sccc3n2)cc1)Nc1cccnc1` [Example 412, 1-{4-[4-(8-oxa-3-azabicyclo[3.2.1]oct-3-yl)thieno[3,2-d]pyrimidin-2-yl]phenyl}-3-pyridin-3-ylurea], for which the IC50 with breast line MDA468 is 0.072 µM; against Human mTOR (FLAG-TOR) it was 0.00028 µM; in the test with prostate line LNCap it was 0.027 µM; on PI3K [1], 0.119 µM; at PI3K [2], 2.36 µM.
For `O=C(Nc1ccncc1)Nc1ccc(-c2nc(N3CC4CCC(C3)O4)c3sccc3n2)cc1` [Example 413, 1-{4-[4-(8-oxa-3-azabicyclo[3.2.1]oct-3-yl)thieno[3,2-d]pyrimidin-2-yl]phenyl}-3-pyridin-4-ylurea], the IC50 in the test with breast line MDA468 is 0.048 µM; at Human mTOR (FLAG-TOR) it was 0.00039 µM; in the test on prostate line LNCap, 0.01 µM; on PI3K [1], 0.08 µM; at PI3K [2], 1.38 µM.
Consider `CC(=O)Nc1ccc(-c2nc(N3CC4CCC(C3)O4)c3sccc3n2)cc1` [Example 415, N-{4-[4-(8-oxa-3-azabicyclo[3.2.1]oct-3-yl)thieno[3,2-d]pyrimidin-2-yl]phenyl}acetamide], for which the IC50 in the test with breast line MDA468 is 8.5 µM; at Human mTOR (FLAG-TOR), 0.026 µM; in the test with prostate line LNCap, 1.7 µM; on PI3K [1], 4.37 µM; on PI3K [2], more than 10 µM.
As to `COC(=O)Nc1ccc(-c2nc(N3CC4CCC(C3)O4)c3sccc3n2)cc1` [Example 416, methyl {4-[4-(8-oxa-3-azabicyclo[3.2.1]oct-3-yl)thieno[3,2-d]pyrimidin-2-yl]phenyl}carbamate], the IC50 in the test with breast line MDA468 was 9.1 µM; against Human mTOR (FLAG-TOR) it was 0.0086 µM; with prostate line LNCap, 1.85 µM; on PI3K [1] it was 6.2 µM; on PI3K [2], more than 10 µM.
Turning to `c1cc2cc(-c3nc(N4CC5CCC(C4)O5)c4sccc4n3)ccc2[nH]1` [Example 419, 2-(1H-indol-5-yl)-4-(8-oxa-3-azabicyclo[3.2.1]oct-3-yl)thieno[3,2-d]pyrimidine], the IC50 in the test on breast line MDA468 was 7.9 µM; against Human mTOR (FLAG-TOR), 0.022 µM; with prostate line LNCap, 1.35 µM; at PI3K [1] it was 8.62 µM; at PI3K [2], more than 10 µM.
In the case of `Nc1ccc(-c2nc(N3CC4CCC(C3)O4)c3sccc3n2)cn1` [Example 420, 5-[4-(8-oxa-3-azabicyclo[3.2.1]oct-3-yl)thieno[3,2-d]pyrimidin-2-yl]pyridin-2-amine], the 50% inhibitory concentration (IC50) was 4.8 µM in the test on breast line MDA468; 0.032 µM against Human mTOR (FLAG-TOR); 1.25 µM with prostate line LNCap; 1.77 µM at PI3K [1]; more than 10 µM at PI3K [2].
